According to patent US20250281433A1, “NOVEL DERIVATIVE COMPOUND HAVING BIPHENYL GROUP INTRODUCED INTO AMINO-ALKANOIC ACID AND ANTI-INFLAMMATORY COMPOSITION COMPRISING SAME” (AMTIXBIO CO., LTD., priority 2020, published 2025):

Legend:
[1] = test system: IL-6 production in RAW264.7 cells; assay: LPS-induced IL-6 production in RAW264.7 cells (ELISA); assay type: cell-based, mouse
Experimental: The inhibitory effect on induced IL-6 cytokine production was analyzed. RAW264.7 cells (obtained from the Korean Cell Line Bank) were seeded at a density of 5×10^5 cells/well in a 12-well plate and stabilized in a CO2 incubator at 37° C. with 5% carbon dioxide and saturated humidity. After 24 hours of incubation, the compounds of the present invention were prepared in DMEM at concentrations of 0 μg/mL or 8 μg/mL and pre-treated for 30 minutes. Next, lipopolysaccharide (LPS, Sigma-Aldrich, Cat No. L2887) was treated to a concentration of 1 μg/mL to induce an inflammatory response for 24 hours. Subsequently, mouse IL-6 ELISA kit (Labiskoma, Cat No. K0331230P) and mouse TNF-α ELISA kit (Labiskoma, Cat No. K0331186P) were used according to the manufacturer's instructions, and absorbance was measured. FK506 (FK-506 monohydrate, manufacturer: MilliporeSigma, product number: F4679, U.S.A) was used as a control substance.
After inducing inflammation as described in (1) and (2) above, the supernatant was collected, and the quantification of IL-6 in the supernatant was performed using the IL-6 ELISA kit (Mouse IL-6 ELISA Kit, pink-ONE, manufactured by Komabiotech, Product No. K0331230P) according to the manufacturer's instructions. Specifically, the amount of IL-6 in the supernatant was quantified according to the ELISA kit protocol, and the absorbance was measured at OD 450 nm using a microplate reader (Multiskan Sky, manufactured by Thermo Fisher Scientific). […] In Table 1 to Table 3, FIG. 1, and FIG. 2, the relative values of IL-6 generated after pretreatment with the compounds of the present invention were expressed as a percentage relative to the IL-6 production (100%) induced by LPS, TNF-α, or IFN-β treatment.

[2] = test system: TSLP in HaCaT keratinocytes; settings: 8 μg/ml, 1 h pre-treatment, TNF-α 100 ng/ml 24 h; compared to the control group FK506
Experimental: (§1) HaCaT keratinocytes, a human skin keratinocyte cell line (obtained from the Korean Cell Line Bank), were seeded in a 12-well plate at a density of 1×10^5 cells per well and cultured for at least 12 hours in a 37° C. humidified incubator containing 5% carbon dioxide and saturated water vapor. After pre-treatment with the compound 77 of the present invention (0 μg/ml or 8 μg/ml) or the immunosuppressant FK506 (FK-506 monohydrate, manufacturer: MilliporeSigma product number: F4679, USA) as a control for 1 hour, TNF-α (Tumor Necrosis Factor-α human, manufacturer: MilliporeSigma) was treated for 24 hours as an inflammatory response inducer at a concentration of 100 ng/ml. Next, the supernatant was obtained and TSLP and IL-6 ELISA (Human TSLP and IL-6 ELISA Kit, pink-ONE, manufacturer: Komabiotech) each was performed. Specifically, the contents of TSLP and IL-6 in the supernatant were quantified according to the protocol of the ELISA kit with the supernatant, and absorbance was measured at a wavelength of 450 nm using a microplate reader (Multiskan Sky, manufacturer: Thermo Fisher Scientific, product number: 51119600DP).

[3] = test system: interleukin-6 in HaCaT keratinocytes; settings: 8 μg/ml, 1 h pre-treatment, TNF-α 100 ng/ml 24 h; compared to the control group FK506
Experimental: as §1

For CCCC(N)C(=O)NCCc1ccc(-c2ccc(C(F)(F)F)cc2)cc1.Cl (racemic) [Compound 77, (R)/(S)-2-amino-N-(2-(4′-(trifluoromethyl)-[1,1′-biphenyl]-4-yl)ethyl)pentanamide hydrochloride], the “IL-6” value ([1]; Table 1, LPS 1 μg/mL 24 h, compound 77 at 8 μg/ml, FK506 concentration not given) was 191.20 pg/mL, the “IL-6 (%)” value ([1]; Table 1, relative to IL-6 production induced by LPS (100%), compound 77 at 8 μg/ml, FK506 concentration not given) was 13.19% and the “Relative amount of IL-6 compared to LPS induction (%)” value ([1]; Table 3, LPS 1 μg/mL 24 h, compounds at 8 μg/mL (FIG. 1), LPS alone = 100%) was 5%. For the same compound, the “amount of TSLP” value [2] was “significantly reduced” and the “amount of interleukin-6” value [3] was “significantly reduced”.
